Data as given in BindingDB's records for doi:10.1021/jm058041z (University of Würzburg, 2005).

Assay: Inhibition of acetylcholinesterase

**Q.** Which IC50 does the source give for `Nc1c2c(nc3c(CO)cccc13)CCCC2` [9-amino-5,6,7,8-tetrahydroacridin-4yl)methano] here?
**A.** 125 nM
